Data from the supplement of paper PMC4862054.

What was measured:
Settings in all cases: incubation time: 72 h
CAL-85-1 [1] = assay: drug sensitivity score (DSS), CellTiter-Glo (DSS (AUC-based score)); higher = stronger drug effect (viability inhibition or cytotoxicity); extreme values may be limits of the assay
Outline: (§1)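 Breast cancer cell lines (20 µl suspension) were seeded into 384-well plates holding compound at 5 concentrations in 10-fold steps over a compound-specific 10,000-fold range, then incubated 72 h. CellTox Green fluorescence (485/520 nm) was read first, then CellTiter-Glo luminescence after 10 min at room temperature. Each plate was normalised to 0.1 % DMSO and a positive kill control. The drug sensitivity score was calculated from the area under the fitted dose-response curve.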

CAL-120 [2] = assay: as above
Outline: as §1

BT-474 = assay: as above
Outline: as §1

MDA-MB-436 = assay: as above
Outline: as §1

CAL-51 [3] = assay: as above
Outline: as §1

HCC1143 = assay: as above
Outline: as §1

MDA-MB-453 = assay: as above
Outline: as §1

CAL-148 = assay: as above
Outline: as §1

MDA-MB-231 [4] = assay: as above
Outline: as §1

HCC1937 [5] = assay: as above
Outline: as §1

SK-BR-3 = assay: as above
Outline: as §1

MFM-223 [6] = assay: as above
Outline: as §1

HCC1599 = assay: as above
Outline: as §1

BT-549 = assay: as above
Outline: as §1

Hs578T [7] = assay: as above
Outline: as §1

MCF-10A = assay: as above
Outline: as §1

CAL-85-1 [8] = assay: normalised viability (% of control), CellTiter-Blue; higher = more viable cells (about 100 = DMSO control)
Outline: (§2)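 After 72 h on compound-loaded 384-well plates, breast cancer cell lines received 2.5 µl CellTiter-Blue reagent for 2 h at 37 °C. Fluorescence at 560/590 nm was scaled per plate so that vehicle was 100 and a positive kill control was 0. The value stands for normalised viability at a single listed concentration of the series.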

CAL-120 [9] = assay: as above
Outline: as §2

CAL-51 [10] = assay: as above
Outline: as §2

MDA-MB-468 = assay: as above
Outline: as §2

MDA-MB-231 [11] = assay: as above
Outline: as §2

HCC1937 [12] = assay: as above
Outline: as §2

MFM-223 [13] = assay: as above
Outline: as §2

DU-4475 = assay: as above
Outline: as §2

Hs578T [14] = assay: as above
Outline: as §2

## CCn1c(C(=O)N(C2CC2)C2CC2)cc2c3c(ncn3C)c(Nc3cc(C)n(C)n3)nc21
CAL-85-1 [1]
  drug sensitivity score: 0
CAL-120 [2]
  drug sensitivity score: 0
BT-474
  drug sensitivity score: 0
MDA-MB-436
  drug sensitivity score: 0
CAL-51 [3]
  drug sensitivity score: 0
HCC1143
  drug sensitivity score: 0
MDA-MB-453
  drug sensitivity score: 0
CAL-148
  drug sensitivity score: 0
MDA-MB-231 [4]
  drug sensitivity score: 0
HCC1937 [5]
  drug sensitivity score: 0
SK-BR-3
  drug sensitivity score: 0
MFM-223 [6]
  drug sensitivity score: 0
HCC1599
  drug sensitivity score: 0
BT-549
  drug sensitivity score: 0
Hs578T [7]
  drug sensitivity score: 0
MCF-10A
  drug sensitivity score: 0

## O=[N+]([O-])c1ccc2c(c1)S(=O)(=O)C=C2 [Stattic]
CAL-85-1 [1]
  drug sensitivity score: 17.8
CAL-120 [2]
  drug sensitivity score: 7.49
BT-474
  drug sensitivity score: 9.26
MDA-MB-436
  drug sensitivity score: 9.28
CAL-51 [3]
  drug sensitivity score: 18.1
HCC1143
  drug sensitivity score: 6.56
MDA-MB-453
  drug sensitivity score: 12.6
CAL-148
  drug sensitivity score: 11.9
MDA-MB-231 [4]
  drug sensitivity score: 14.4
HCC1937 [5]
  drug sensitivity score: 15.3
SK-BR-3
  drug sensitivity score: 8.62
MFM-223 [6]
  drug sensitivity score: 14.8
HCC1599
  drug sensitivity score: 7.71
BT-549
  drug sensitivity score: 20.4
Hs578T [7]
  drug sensitivity score: 14
MCF-10A
  drug sensitivity score: 5.13

## CC(C)(C)c1nc(-c2cccc(NS(=O)(=O)c3c(F)cccc3F)c2F)c(-c2ccnc(N)n2)s1 [Dabrafenib]
CAL-85-1 [1]
  drug sensitivity score: 0
CAL-120 [2]
  drug sensitivity score: 8.71
BT-474
  drug sensitivity score: 0
MDA-MB-436
  drug sensitivity score: 0
CAL-51 [3]
  drug sensitivity score: 0
HCC1143
  drug sensitivity score: 0
MDA-MB-453
  drug sensitivity score: 0
CAL-148
  drug sensitivity score: 0
MDA-MB-231 [4]
  drug sensitivity score: 0
HCC1937 [5]
  drug sensitivity score: 0
SK-BR-3
  drug sensitivity score: 0
MFM-223 [6]
  drug sensitivity score: 0
HCC1599
  drug sensitivity score: 0
BT-549
  drug sensitivity score: 0
Hs578T [7]
  drug sensitivity score: 0.389
MCF-10A
  drug sensitivity score: 0

## C=CCN(/C=C1/C(=O)O[C@H](COC)[C@@]2(C)C1=C(O)C(=O)C1=C2[C@H](OC(C)=O)C[C@]2(C)C(=O)CC[C@@H]12)CC=C [Sonolisib]
CAL-85-1 [1]
  drug sensitivity score: 0
CAL-120 [2]
  drug sensitivity score: 0
BT-474
  drug sensitivity score: 0
MDA-MB-436
  drug sensitivity score: 0
CAL-51 [3]
  drug sensitivity score: 4.2
HCC1143
  drug sensitivity score: 0
MDA-MB-453
  drug sensitivity score: 0
CAL-148
  drug sensitivity score: 0
MDA-MB-231 [4]
  drug sensitivity score: 0
HCC1937 [5]
  drug sensitivity score: 0
SK-BR-3
  drug sensitivity score: 0
MFM-223 [6]
  drug sensitivity score: 0
HCC1599
  drug sensitivity score: 0
BT-549
  drug sensitivity score: 0.766
Hs578T [7]
  drug sensitivity score: 0
MCF-10A
  drug sensitivity score: 0

## CC[C@H](CO)Nc1nc(NCc2ccccc2)c2ncn(C(C)C)c2n1 [Seliciclib]
CAL-85-1 [1]
  drug sensitivity score: 0
CAL-120 [2]
  drug sensitivity score: 0
BT-474
  drug sensitivity score: 0.844
MDA-MB-436
  drug sensitivity score: 0
CAL-51 [3]
  drug sensitivity score: 2.74
HCC1143
  drug sensitivity score: 0
MDA-MB-453
  drug sensitivity score: 0
CAL-148
  drug sensitivity score: 0
MDA-MB-231 [4]
  drug sensitivity score: 0
HCC1937 [5]
  drug sensitivity score: 0
SK-BR-3
  drug sensitivity score: 0
MFM-223 [6]
  drug sensitivity score: 0
HCC1599
  drug sensitivity score: 0
BT-549
  drug sensitivity score: 1.15
Hs578T [7]
  drug sensitivity score: 0
MCF-10A
  drug sensitivity score: 0

## O=C(O)CNC(=O)c1c(O)c2ccccc2n(Cc2ccccc2)c1=O [IOX-2]
CAL-85-1 [1]
  drug sensitivity score: 0
CAL-120 [2]
  drug sensitivity score: 0
BT-474
  drug sensitivity score: 0
MDA-MB-436
  drug sensitivity score: 0
CAL-51 [3]
  drug sensitivity score: 3.96
HCC1143
  drug sensitivity score: 0
MDA-MB-453
  drug sensitivity score: 0
CAL-148
  drug sensitivity score: 0
MDA-MB-231 [4]
  drug sensitivity score: 0
HCC1937 [5]
  drug sensitivity score: 0
SK-BR-3
  drug sensitivity score: 0
MFM-223 [6]
  drug sensitivity score: 0
HCC1599
  drug sensitivity score: 0
BT-549
  drug sensitivity score: 0.135
Hs578T [7]
  drug sensitivity score: 0
MCF-10A
  drug sensitivity score: 0

## CC1(COc2ccc3c(c2)ncn3-c2ccc3cccc(N4CCC(N)CC4)c3n2)COC1 [Crenolanib]
CAL-85-1 [1]
  drug sensitivity score: 4.49
CAL-120 [2]
  drug sensitivity score: 0
BT-474
  drug sensitivity score: 4.44
MDA-MB-436
  drug sensitivity score: 4.37
CAL-51 [3]
  drug sensitivity score: 6.45
HCC1143
  drug sensitivity score: 0
MDA-MB-453
  drug sensitivity score: 3.06
CAL-148
  drug sensitivity score: 4.01
MDA-MB-231 [4]
  drug sensitivity score: 4.35
HCC1937 [5]
  drug sensitivity score: 0.864
SK-BR-3
  drug sensitivity score: 4.21
MFM-223 [6]
  drug sensitivity score: 0
HCC1599
  drug sensitivity score: 0.696
BT-549
  drug sensitivity score: 7.22
Hs578T [7]
  drug sensitivity score: 4.07
MCF-10A
  drug sensitivity score: 3.64

## CC[C@H](CO)Nc1nc(NCc2ccccc2)c2ncn(C(C)C)c2n1 [Roscovitine]
CAL-85-1 [8]; 3 nM
  normalised viability: 93.3%
CAL-85-1 [8]; 30 nM
  normalised viability: 88.8%
CAL-85-1 [8]; 100 nM
  normalised viability: 90.8%
CAL-120 [9]; 10 nM
  normalised viability: 82.7%
CAL-120 [9]; 1000 nM
  normalised viability: 86.1%
CAL-120 [9]; 10000 nM
  normalised viability: 76.3%
CAL-51 [10]; 3 nM
  normalised viability: 111%
CAL-51 [10]; 30 nM
  normalised viability: 105%
CAL-51 [10]; 100 nM
  normalised viability: 105%
MDA-MB-468; 10 nM
  normalised viability: 93%
MDA-MB-468; 1000 nM
  normalised viability: 106%
MDA-MB-468; 10000 nM
  normalised viability: 83.7%
MDA-MB-231 [11]; 10 nM
  normalised viability: 88%
MDA-MB-231 [11]; 1000 nM
  normalised viability: 96.5%
MDA-MB-231 [11]; 10000 nM
  normalised viability: 76.6%
HCC1937 [12]; 10 nM
  normalised viability: 83.8%
HCC1937 [12]; 1000 nM
  normalised viability: 105%
HCC1937 [12]; 10000 nM
  normalised viability: 77.2%
MFM-223 [13]; 10 nM
  normalised viability: 92.5%
MFM-223 [13]; 1000 nM
  normalised viability: 91.5%
MFM-223 [13]; 10000 nM
  normalised viability: 85.1%
DU-4475; 3 nM
  normalised viability: 99.9%
DU-4475; 30 nM
  normalised viability: 101%
DU-4475; 100 nM
  normalised viability: 89.7%
Hs578T [14]; 10 nM
  normalised viability: 111%
Hs578T [14]; 1000 nM
  normalised viability: 91.4%
Hs578T [14]; 10000 nM
  normalised viability: 42.6%

## CC(C)n1cnc2c(NCCc3ccc(O)cc3)nc(-c3csc4ccccc34)nc21 [StemRegenin 1]
CAL-85-1 [1]
  drug sensitivity score: 0
CAL-120 [2]
  drug sensitivity score: 0
BT-474
  drug sensitivity score: 0
MDA-MB-436
  drug sensitivity score: 0.344
CAL-51 [3]
  drug sensitivity score: 0
HCC1143
  drug sensitivity score: 0
MDA-MB-453
  drug sensitivity score: 0.255
CAL-148
  drug sensitivity score: 0
MDA-MB-231 [4]
  drug sensitivity score: 0
HCC1937 [5]
  drug sensitivity score: 1.53
SK-BR-3
  drug sensitivity score: 0
MFM-223 [6]
  drug sensitivity score: 1.58
HCC1599
  drug sensitivity score: 0
BT-549
  drug sensitivity score: 3.44
Hs578T [7]
  drug sensitivity score: 0
MCF-10A
  drug sensitivity score: 0

## CN(C)C(=N)NC(=N)N [Metformin]
CAL-85-1 [1]
  drug sensitivity score: 0
CAL-120 [2]
  drug sensitivity score: 0
BT-474
  drug sensitivity score: 0
MDA-MB-436
  drug sensitivity score: 0
CAL-51 [3]
  drug sensitivity score: 6.92
HCC1143
  drug sensitivity score: 0
MDA-MB-453
  drug sensitivity score: 0
CAL-148
  drug sensitivity score: 0
MDA-MB-231 [4]
  drug sensitivity score: 0
HCC1937 [5]
  drug sensitivity score: 0
SK-BR-3
  drug sensitivity score: 0
MFM-223 [6]
  drug sensitivity score: 0
HCC1599
  drug sensitivity score: 0
BT-549
  drug sensitivity score: 0
Hs578T [7]
  drug sensitivity score: 0
MCF-10A
  drug sensitivity score: 0
